From patent US9718771B2, “Aniline derivative, pharmaceutical composition containing same, and use thereof” (Kissei Pharmaceutical Co., Ltd., priority 2014, dated 2017) come the findings set out here.

In one test the test system is blood lymphocytes. Put plainly: Confirmation test for reduction effects on the number of lymphocytes. Type of test: in vivo, Male Sprague-Dawley rats. Particulars: rat, oral; for Number of lymphocytes (% of Vehicle) After 6 hours: 6 hours after administration; for Number of lymphocytes (% of Vehicle) After 24 hours: 24 hours after administration; for Number of lymphocytes (% of Vehicle) After 48 hours: 48 hours after administration. The procedure: Confirmation Test for Reduction Effects on the Number of Lymphocytes
Reduction effects on the number of blood lymphocytes by test compounds were confirmed using Male Sprague-Dawley rats (Japan SLC, 7-weeks-old in use). Administration solutions for test compounds were prepared on hot-plate at 50° C. After test compounds were dissolved by DMSO (dimethyl sulfoxide, Wako Pure Chemicals) of 1/10 volume of the total volume, WellSolve (Celeste) of 1/10 volume of the total volume was added to this solution. Further, distilled water (Otsuka Pharmaceutical Factory) of 8/10 volume of the total volume was added to this solution, and the administration solutions for test compounds were prepared. A solution, prepared in the same volume ratios of DMSO. WellSolve and distilled water as the administration solution for test compounds, was used as a solvent (Vehicle). Vehicle or test compound was administered orally to rats at 1 mL/body. After 6, 24 and 48 hours from administration of vehicle or test compounds, rats were held on the board at supine position under inhalation anesthesia with isoflurane (Abbott Japan). Blood samples (200 to 250 μL) were collected from the cervical vein of this rat using 1 mL syringes with needles of 25G. The collected blood samples were transferred to a microtube treated with EDTA-2K (Japan Becton Dickinson), and stored at room temperature after gently mixing with inversion. The number of lymphocytes was measured by ADVIA (registered mark) (Bayer), which is a multi-parameter automated blood cell counter using this blood samples. The average number of lymphocytes in vehicle-treated group (vehicle group) was defined as 100%, and the average number of lymphocytes in each test compound-treated group was calculated as % of vehicle. As Comparative Example 2, 1-{5-[1-(4-chloro-3-methyl-phenyl)-propylamino]-2-methyl-benzyl}-azetidine-3-carboxylic acid (patent literature 1, Example 4) was evaluated as well.

A further test has as its target human S1P1 (EDG-1) (Homo sapiens (Human), UniProt P21453). Put plainly: Confirmation test of antagonistic activity for human S1P1 receptor (35S-GTP binding, cell membranes). The test is classed as biochemical. As to conditions: inhibition of 35S-GTP binding induced by S1P1 receptor selective agonist; HEK293 membranes expressing human S1P1. The procedure: Confirmation Test of Antagonistic Activity for Human S1P1 Receptor
Test compounds were tested by reduction of functional binding activity of ^35S-GTP (guanosine 5′-O-[gamma-thio] triphosphate, PerkinElmer) to G protein using cell membranes expressing human S1P1 (EDG-1). S1P1-pcDNA3.1/V5-His-Topo vector was prepared by inserting cDNA (NM_001400) encoding human S1P1 into the expression vector, pcDNA3.1/V5-His-Topo (registered trademark) (Invitrogen). Next, the above S1P1-pcDNA3.1 vector was transfected into HEK293 cells by Lipofectamine2000 (registered trademark) (Invitrogen). The transfected cells were incubated with D-MEM liquid medium each containing 10% FBS (Fetal bovine serum), 100 U/mL penicillin, 100 μg/mL streptomycin and 1 mg/mL Geneticin (registered trademark) (Invitrogen) in an incubator under the condition of 5% CO2 at 37° C. and Geneticin (registered mark)-resistant cell line stably expressing S1P1 were obtained. The obtained stably S1P1-expressing cells were incubated with D-MEM liquid medium each containing 10% FBS and 0.5 mg/mL Geneticin (registered trademark) in an incubator under the condition of 5% CO2 at 37° C. The cells grown to confluence were harvested by a buffer solution containing 50 mM Tris, 2 mM EDTA (ethylmediaminetetraacetic acid) and 125 mM sodium chloride, and centrifuged at 1880×g, 4° C. for 10 minutes. After a supernatant was removed, a cell pellet was resuspended by the same buffer solution. For making cell membranes fragile, this cell suspension was frozen at −80° C. and then thawed. The cells were centrifuged at 1880×g, 4° C. for 10 minutes, and a supernatant was removed. The cell pellet was suspended by adding the same buffer solution and a fracture solution (10 mM sodium bicarbonate and 5 mM EDTA, pH 7.5) at a ratio of 2:1. The cells were fractured by subjecting the cell suspension to ultrasonication, and a cell membrane fraction was isolated by centrifugation at 1880×g, 4° C. for 10 minutes and ultracentrifugation of the supernatant at 80000×g, 4° C. for 30 minutes. A pellet of the cell membrane fraction was suspended by the fracture solution containing protease inhibitor cocktail (Roche) and stored at −80° C. until use. A protein concentration of the cell membrane fraction was determined using BCA Protein Assay Kit (Pierce) in accordance with an attached protocol.
Inhibitory activity evaluation was performed by multi-screen (registered trademark) HTS 96-well plate (Millipore) using the cell membrane fraction stably expressing S1P1 obtained by the above operation. 25 μL of assay solution (50 mM Tris, 100 mM sodium chloride, 5 mM magnesium chloride, 1 mM EDTA, 1 mM DTT (dithiothreitol), 10 μM GDP (guanosine diphosphate) and 0.5% BSA (bovine serum albumin), pH 7.4), 25 μL of test compounds solution diluted by assay solution and 25 μL of the membrane fraction (0.2 μg protein/μL) were added to each well, and the mixture was gently shaken at room temperature: for 30 minutes. Then, 25 μL of ^35S-GTP, and 25 μL of 50 nM S1P1 receptor selective agonist (1-[4-(4-phenyl-5-trifluoromethylthiophen-2-ylmethoxy)benzyl]azetidine-3-carboxylic acid, “J. Med. Chem.”, 2004, vol. 47, pp. 6662-6665, compound 18) were added to each well, respectively, and it was reacted at room temperature for 60 minutes. After the reaction, a reaction solution of each well was suction-filtered. After suction filtration, ice-colded wash solution (50 mM Tris, 100 mM sodium chloride, […] and 1 mM EDTA, pH 7.4) was added to each well, and moreover filters were washed by suction filtration. This wash procedure was performed three times. A bottom of the plate containing the filters was dried at 60° C. After drying, 30 μL of MicroScinti-40 (PerkinElmer) was added to each well, and the radioactivity adsorbed on the filter was determined by TopCount NXT (registered trademark) (PerkinElmer) after shaking for 30 minutes at room temperature. […]

Sequence of human S1P1 (EDG-1) (P21453 whole entry): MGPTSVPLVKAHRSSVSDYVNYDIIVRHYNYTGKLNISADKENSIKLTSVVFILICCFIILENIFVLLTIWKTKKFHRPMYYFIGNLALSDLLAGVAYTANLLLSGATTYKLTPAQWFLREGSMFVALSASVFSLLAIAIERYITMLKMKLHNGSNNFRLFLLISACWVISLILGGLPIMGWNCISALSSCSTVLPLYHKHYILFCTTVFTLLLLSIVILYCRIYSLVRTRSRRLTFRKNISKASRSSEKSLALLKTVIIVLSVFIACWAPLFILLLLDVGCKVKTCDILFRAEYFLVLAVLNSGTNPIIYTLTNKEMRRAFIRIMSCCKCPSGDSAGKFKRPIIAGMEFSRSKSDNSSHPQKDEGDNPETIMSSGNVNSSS

`CCC(Nc1ccc(C)c(CN2CC(C(=O)O)C2)c1)c1ccc(Cl)c(C)c1` (centres unmarked) [Comparative Example 2, 1-{5-[1-(4-chloro-3-methyl-phenyl)-propylamino]-2-methyl-benzyl}-azetidine-3-carboxylic acid, reference compound]: in the test on blood lymphocytes (1 mg/kg), the “Number of lymphocytes (% of Vehicle) After 6 hours” value was 39.9 % of Vehicle, the “Number of lymphocytes (% of Vehicle) After 24 hours” value is given as 82.3 % of Vehicle and the “Number of lymphocytes (% of Vehicle) After 48 hours” value was 109.6 % of Vehicle. In addition, in the test on blood lymphocytes (10 mg/kg), the “Number of lymphocytes (% of Vehicle) After 6 hours” value is reported as 16.8 % of Vehicle, the “Number of lymphocytes (% of Vehicle) After 24 hours” value was 94.0 % of Vehicle and the “Number of lymphocytes (% of Vehicle) After 48 hours” value is 110.3 % of Vehicle. Moreover, the “time course of the number of lymphocytes in blood (in words)” value in the test with blood lymphocytes (6 to 48 hours after administration) is on record as “transient reduction of the number of lymphocytes in blood”.

The molecule `CCN(c1ccc(Cl)c(C(F)(F)F)c1)C1CCc2c1ccc(C)c2CN1CC(C(=O)O)C1` (centres unmarked) [Compound 2-8, 1-{1-[(4-Chloro-3-trifluoromethylphenyl)(ethyl)amino]-5-methylindan-4-ylmethyl}azetidine-3-carboxylic acid] showed an IC50 at human S1P1 (EDG-1) of 2.9 nM. For the same molecule, in the test on blood lymphocytes (1 mg/kg), the “Number of lymphocytes (% of Vehicle) After 6 hours” value is 15.1 % of Vehicle, the “Number of lymphocytes (% of Vehicle) After 24 hours” value is 34.5 % of Vehicle and the “Number of lymphocytes (% of Vehicle) After 48 hours” value is recorded as 87.7 % of Vehicle. Besides, in the test with blood lymphocytes (10 mg/kg), the “Number of lymphocytes (% of Vehicle) After 6 hours” value is 13.7 % of Vehicle, the “Number of lymphocytes (% of Vehicle) After 24 hours” value is 12.3 % of Vehicle and the “Number of lymphocytes (% of Vehicle) After 48 hours” value is listed as 33.4 % of Vehicle.

For the molecule `CCN(c1ccc(Cl)c(C(F)(F)F)c1)C(C)c1ccc(C(F)(F)F)c(CN2CC(C(=O)O)C2)c1` (centres unmarked) [Compound 2-41, 1-(5-{1-[(4-Chloro-3-trifluoromethylphenyl)(ethyl)amino]ethyl}-2-trifluoromethylbenzyl)azetidine-3-carboxylic acid], on human S1P1 (EDG-1), the IC50 worked out at 1.9 nM.

At human S1P1 (EDG-1), `CCCN(c1ccc(Cl)c(C)c1)C(C)c1ccc(C)c(CN2CC(C(=O)O)C2)c1` (centres unmarked) [Compound 2-14, 1-(5-{1-[(4-Chloro-3-methylphenyl)(propyl)amino]ethyl}-2-methylbenzyl)-azetidine-3-carboxylic acid] yielded an IC50 of 1.7 nM.

In turn, `CCN(c1ccc(Cl)c(C(F)(F)F)c1)C(C)c1ccc(CO)c(CN2CC(C(=O)O)C2)c1` (centres unmarked) [Compound 5-1, 1-(5-{1-[(4-Chloro-3-trifluoromethylphenyl)(ethyl)amino]ethyl}-2-hydroxymethyl-benzyl)azetidine-3-carboxylic acid] came in with an IC50 on human S1P1 (EDG-1) of 4.4 nM.

As for `CCN(c1ccc(Cl)c(C)c1)C(C)c1ccc(C(F)(F)F)c(CN2CC(C(=O)O)C2)c1` (centres unmarked) [Compound 2-43, 1-(5-{1-[(4-Chloro-3-methylphenyl)(ethyl)amino]ethyl}-2-trifluoromethylbenzyl)azetidine-3-carboxylic acid], on human S1P1 (EDG-1), the IC50 was 3.5 nM.

Molecule `CCN(c1ccc(Cl)c(C)c1)C(C)c1ccc(F)c(CN2CC(C(=O)O)C2)c1` (centres unmarked) [Compound 2-31, 1-(5-{1-[(4-Chloro-3-methylphenyl)(ethyl)amino]ethyl}-2-fluorobenzyl)-azetidine-3-carboxylic acid] registered an IC50 at human S1P1 (EDG-1) of 5.7 nM.

With `Cc1cc(N(Cc2cccc(CN3CC(C(=O)O)C3)c2)C(C)C)ccc1Cl` [Compound 3-4], the IC50 on human S1P1 (EDG-1) is 15.3 nM.
